Test results reported in patent EP0241395A2, “Sweeteners derived from n-phenylguanidinoacetic and n-phenylethananamidinacetic acids, and compositions containing such sweeteners” (UNIVERSITE CLAUDE BERNARD - LYON 1, priority 1986, dated 1987).

System: groupe de huit goûteurs expérimentés
Assay: Sweetening power judged by a panel of eight experienced tasters against a sucrose reference solution
Assay type: in vivo
Conditions: weight basis; for Pouvoir édulcorant: Table II, relative to a 2 % sucrose solution; for pouvoir édulcorant, sur une base pondérale: approximate
Text: Le pouvoir édulcorant des composés préparés dans les exemples suivants a été évalué par un groupe de huit goûteurs expérimentés. Pour cela, les composés, en solution aqueuse à des concentrations variables, sont comparés, sur le plan gustatif, à une solution témoin de saccharose à 2 % et dans certains cas à 5 % et 10 %, c'est-à-dire à des concentrations correspondant à celles utilisées lors d'un usage courant. Le pouvoir sucrant des édulcorants de synthèse varie en effet suivant la concentration de la solution de saccharose utilisée comme référence. Le pouvoir édulcorant du composé testé par rapport au saccharose correspond alors au rapport pondéral qui existe entre le composé et le saccharose à égale intensité édulcorante, c'est-à-dire quand les saveurs sucrées de la solution du composé testé et de la solution témoin de saccharose sont considérées, par une majorité de goûteurs, avoir la même intensité édulcorante.

[1] = by comparison with a 2 % sucrose solution
[2] = by comparison with a 5 % sucrose solution
[3] = by comparison with a 10 % sucrose solution

N#Cc1ccc(NC(=NC2CCCCCCC2)NCC(=O)O)cc1 [Exemple 47, acide N-[N-cyclooctylamino-(4-cyanophénylimino)méthyl]-2-aminoéthanoïque]
Pouvoir édulcorant: 170000 | pouvoir édulcorant, sur une base pondérale [1]: ~170 000 fois celui du saccharose | pouvoir édulcorant, sur une base pondérale [2]: ~130 000 fois celui du saccharose | pouvoir édulcorant, sur une base pondérale [3]: ~100 000 fois celui du saccharose

O=C(O)CNC(=Nc1ccc(Cl)cc1)NCC1CCCCC1 [Exemple 58, acide N-[N-cyclohexylméthylamino(4-chlorophénylimino)méthyl]-2-aminoéthanoïque]
Pouvoir édulcorant: 3500 | pouvoir édulcorant, sur une base pondérale [1]: ~3 500 fois celui du saccharose | pouvoir édulcorant, sur une base pondérale [2]: ~2 700 fois celui du saccharose | pouvoir édulcorant, sur une base pondérale [3]: ~1 500 fois celui du saccharose

O=C(O)CNC(=Nc1cc(Cl)cc(Cl)c1)NN1CCOCC1 [Exemple 76, acide N-[N-morpholinoamino (3,5-dichlorophénylimino)méthyl]-2-aminoéthanoïque]
Pouvoir édulcorant: 500 | pouvoir édulcorant, sur une base pondérale [1]: ~500 fois celui du saccharose

N#Cc1ccc(N=C(NCC(=O)O)NC23CC4CC(CC(C4)C2)C3)cc1 [Exemple 71, acide N-[N-(1-adamantyl)amino(4-cyanophénylimine)méthyl]-2-8minoéthanoique]
Pouvoir édulcorant: 3 500 | pouvoir édulcorant, sur une base pondérale [1]: ~3 500 fois celui du saccharose

Cc1cccc(NC(=Nc2ccc(C#N)cc2)NCC(=O)O)c1 [Exemple 65, acide N-[N-(3-méthylphényl)amino(4-cyanophénylimino)méthyl]-2-aminoéthanoïque]
Pouvoir édulcorant: 9000 | pouvoir édulcorant, sur une base pondérale [1]: ~9 000 fois celui du saccharose

COc1cccc(N=C(NCC(=O)O)N[C@@H](C)c2ccccc2)c1 [Exemple 9, acide N-[N-(S)-ot-méthylbenzylamino (3-méthoxyphénylimino)méthyl]-2-aminoéthanoïque]
Pouvoir édulcorant: 4 500 | pouvoir édulcorant, sur une base pondérale [1]: ~4 500 fois celui du saccharose

N#Cc1ccc(N=C(NCC(=O)O)NC2CCCCCCCC2)cc1 [Exemple 50, acide N-[N-cyclononylamino(4-cyanophénylimino)méthyl]-2-aminoéthanoïque]
Pouvoir édulcorant: 200000 | pouvoir édulcorant, sur une base pondérale [1]: ~200 000 fois celui du saccharose

CC1(C)SC(C)(C)C1NC(=Nc1ccc(C#N)cc1)NCC(=O)O [Exemple 78, acide N-[N-(2,2,4,4-tétraméthylthiacyclobut-3-yl)amino(4-cyanophénylimino)méthyl]-2-amino-éthanoïque]
Pouvoir édulcorant: 700 | pouvoir édulcorant, sur une base pondérale [1]: ~700 fois celui du saccharose

N#Cc1ccc(N=C(NCCc2ccccc2)NCC(=O)O)cc1 [Exemple 53, acide N-[N-phényléthylamino(4-cyanophénylimino)méthyl]-2-aminoéthanoïque]
Pouvoir édulcorant: 8 500 | pouvoir édulcorant, sur une base pondérale [1]: ~8 500 fois celui du saccharose | pouvoir édulcorant, sur une base pondérale [2]: ~6 100 fois celui du saccharose | pouvoir édulcorant, sur une base pondérale [3]: ~4 200 fois celui du saccharose

C[C@@H](NC(=Nc1ccc(C#N)cc1)NC1CCCCCCC1)C(=O)O [Exemple 87, acide (R)-N-[N-cyclooctylamino(4-cyanophénylimino)méthyl]-2-aminopropanoïque]
Pouvoir édulcorant: 900 | pouvoir édulcorant, sur une base pondérale [1]: ~900 fois celui du saccharose

C[C@H](NC(=Nc1cccc(C(F)(F)F)c1)NCC(=O)O)c1ccccc1 [Exemple 3]
Pouvoir édulcorant: 7 500 | pouvoir édulcorant, sur une base pondérale [1]: ~7 500 fois celui du saccharose

Cc1cc(C)cc(N=C(NCC(=O)O)N(C)Cc2ccccc2)c1 [Exemple 88, acide N-[N-méthyl-N-benzylamino (3,5-diméthylphénylimino)méthyl]-2-aminoéthanoïque]
Pouvoir édulcorant: 5000 | pouvoir édulcorant, sur une base pondérale [1]: ~5 000 fois celui du saccharose

N#CN=C(NCC(=O)O)Nc1cccc(Cl)c1 [Exemple 73, acide N-[cyanoimino(3-chlorophénylamino)méthyl]-2-aminoéthanoïque]
Pouvoir édulcorant: 80 | pouvoir édulcorant, sur une base pondérale [1]: ~80 fois celui du saccharose

CN(C(=Nc1ccc(C#N)cc1)NCC(=O)O)c1ccccc1 [Exemple 74, acide N-[N-(N-méthyl-N-phénylamino) (4-cyanophénylimino)méthyl]-2-aminoéthanoïque]
Pouvoir édulcorant: 18000 | pouvoir édulcorant, sur une base pondérale [1]: ~18 000 fois celui du saccharose

CCCCCCN=C(NCC(=O)O)Nc1ccc(C#N)cc1 [Exemple 36, acide N-[N-hexylamino(4-cyanophénylimino)méthyl]-2-aminoéthanoïque]
Pouvoir édulcorant: 6000 | pouvoir édulcorant, sur une base pondérale [1]: ~6 000 fois celui du saccharose | pouvoir édulcorant, sur une base pondérale [2]: ~4 300 fois celui du saccharose | pouvoir édulcorant, sur une base pondérale [3]: ~1400 times sucrose

Cc1cccc(N=C(NCC(=O)O)N[C@@H](C)c2ccccc2)c1 [Exemple 4, acide N-[N (S)-α-méthylbenzylamino (3-méthylphénylimino)méthyl]-2-aminoéthanoïque]
Pouvoir édulcorant: 12000 | pouvoir édulcorant, sur une base pondérale [1]: ~12 000 fois celui du saccharose

N#Cc1ccc(N=C(NCC(=O)O)Nc2cccc(Cl)c2)cc1 [Exemple 80, acide N-[N-(3-chlorophényl)amino(4-cyanophénylimino)méthyl]-2-aminoéthanoïque]
Pouvoir édulcorant: 10000

COC(=O)c1ccc(N=C(NCC(=O)O)NCC2CCCCC2)cc1 [Exemple 60, acide N-[N-cyclohexylméthylamino(4-méthoxycarbonylphénylimino)méthyl]-2-aminoéthanoïque]
Pouvoir édulcorant: 1300 | pouvoir édulcorant, sur une base pondérale [1]: ~1 300 fois celui du saccharose | pouvoir édulcorant, sur une base pondérale [2]: ~900 fois celui du saccharose | pouvoir édulcorant, sur une base pondérale [3]: ~500 fois celui du saccharose

N#Cc1ccc(N=C(NCC(=O)O)NC2CCCCCC2)cc1 [Exemple 45, acide N-[N-cycloheptylamino(4-cyanophénylimino)méthyl]-2-aminoéthanoïque]
Pouvoir édulcorant: 60000 | pouvoir édulcorant, sur une base pondérale [1]: ~60 000 fois celui du saccharose

C[C@H](NC(=Nc1cccc(Br)c1)NCC(=O)O)c1ccccc1 [Exemple 2, acide N-[N-(S)-a-méthylbenzylamino (3-bromophénylimino)méthyl]-2-aminoéthanoïque]
Pouvoir édulcorant: 25000 | pouvoir édulcorant, sur une base pondérale [1]: ~25 000 fois celui du saccharose

Cc1ccccc1N=C(NCC(=O)O)Nc1ccc(C#N)cc1 [Exemple 64, acide N-[N-(2-méthylphényl)amino (4-cyanophénylimino)méthyl]-2-aminoéthanoïque]
Pouvoir édulcorant: 5000 | pouvoir édulcorant, sur une base pondérale [1]: ~5 000 fois celui du saccharose

Cc1cc(NC(=NC2CCCCCCC2)NCC(=O)O)ccc1C#N [Exemple 48, acide N-[N-cyclooctylamino(4-cyano-3-méthylphénylimino)méthyl]-2-aminoéthanoïque]
Pouvoir édulcorant: 80000 | pouvoir édulcorant, sur une base pondérale [1]: ~80 000 fois celui du saccharose

C[C@@H](NC(=Nc1ccc(C#N)cc1)NCC(=O)O)c1ccccc1 [Exemple 54, acide N-[N-(R)-a-méthylbenzylamino (4-cyanophénylimino)méthyl]-2-aminoéthanoïque]
Pouvoir édulcorant: 9000 | pouvoir édulcorant, sur une base pondérale [1]: ~9 000 fois celui du saccharose | pouvoir édulcorant, sur une base pondérale [2]: ~6600 times sucrose | pouvoir édulcorant, sur une base pondérale [3]: ~2 500 fois celui du saccharose

N#Cc1ccc(N=C(NCC(=O)O)Nc2ccc3c(c2)OCO3)cc1 [Exemple 75, acide N-[N-(3,4-méthylènedioxyphényl)amino(4-cyanophénylimino)méthyl]-2-aminoéthanoïque]
Pouvoir édulcorant: 5000 | pouvoir édulcorant, sur une base pondérale [1]: ~5 000 fois celui du saccharose

N#Cc1ccc(N=C(NCC(=O)O)NCC2CCCCC2)cc1 [Exemple 59, acide N-[N-cyclohexylméthylamino(4-cyanophénylimino)méthyl]-2-aminoéthanoïque]
Pouvoir édulcorant: 35000 | pouvoir édulcorant, sur une base pondérale [1]: ~35 000 fois celui du saccharose | pouvoir édulcorant, sur une base pondérale [2]: ~28 000 fois celui du saccharose | pouvoir édulcorant, sur une base pondérale [3]: ~17 000 fois celui du saccharose

C[C@H](NC(=Nc1ccc(Cl)cc1)NCC(=O)O)c1ccccc1 [Exemple 13, acide N-[N-(S)-α-méthylbenzylamino (4-chlorophénylimino)méthyl]-2-aminoéthanoïque]
Pouvoir édulcorant: 3000 | pouvoir édulcorant, sur une base pondérale [1]: ~3 000 fois celui du saccharose

COc1ccc(N=C(NCC(=O)O)N[C@@H](C)c2ccccc2)cc1 [Exemple 19, acide N-[N-(S)-α-méthylbenzylamino (4-méthoxyphénylimino)méthyl]-2-aminoéthanoïque]
Pouvoir édulcorant: 2 100 | pouvoir édulcorant, sur une base pondérale [1]: ~2100 times sucrose

Cc1ccc(N=C(NCC(=O)O)N[C@@H](C)c2ccccc2)cc1 [Exemple 12, acide N-[N-(S)-a-méthylbenzylamino (4-méthylphénylimino)méthyl]-2-aminoéthanoïque]
Pouvoir édulcorant: 800 | pouvoir édulcorant, sur une base pondérale [1]: ~800 fois celui du saccharose

C[C@H](NC(=Nc1cc(F)cc(F)c1)NCC(=O)O)c1ccccc1 [Exemple 27, acide N-[N-(S)-α-méthylbenzylamine (3,5-difluorophënylimino)méthyl]-2-aminoéthanoïque]
Pouvoir édulcorant: 15000 | pouvoir édulcorant, sur une base pondérale [1]: ~15 000 fois celui du saccharose
